Experimental data as given in ChEMBL document CHEMBL1201862, “PubChem BioAssay data set” (2004).
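Dose response: 5 concentrations. Exposure: 48 h. Format: 96-well plates. Endpoint: linear interpolation; highest concentration if not reached. Abbreviation: GI50, concentration required for 50% inhibition of growth.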 The source made the active and inactive calls. Rule as the data show it: active = GI50 up to about 1.1 µM and inactive = higher.

What was measured:
Assay in all cases: NCI anticancer screen, dose series, 48 h
MDA-MB-231 = tested on: MDA-MB-231
KM12 = tested on: KM12
IGROV-1 = tested on: IGROV-1
MDA-MB-435 = tested on: MDA-MB-435
UO-31 = tested on: UO-31
Hs-578T = tested on: Hs-578T
SW-620 = tested on: SW-620
NCI-H23 = tested on: NCI-H23
RPMI-8226 = tested on: RPMI-8226
OVCAR-3 = tested on: OVCAR-3
SR = tested on: SR
CAKI-1 = tested on: CAKI-1
PC-3 = tested on: PC-3
UACC-62 = tested on: UACC-62
HOP-62 = tested on: HOP-62
ACHN = tested on: ACHN
HCC 2998 = tested on: HCC 2998
M14 = tested on: M14
RXF 393 = tested on: RXF 393
SF-295 = tested on: SF-295

COC(=O)c1c(C)cccc1C1CN=NC12Cc1c(C)cccc1C2=O (stereo not given)
GI50 (MDA-MB-231): 82.8 µM (inactive) | GI50 (KM12): 46.6 µM (inactive) | GI50 (IGROV-1): > 100 µM (inactive) | GI50 (MDA-MB-435): 39.8 µM (inactive) | GI50 (UO-31): 24 µM (inactive) | GI50 (Hs-578T): 80.2 µM (inactive) | GI50 (SW-620): > 100 µM (inactive) | GI50 (NCI-H23): 60 µM (inactive) | GI50 (RPMI-8226): 46.5 µM (inactive) | GI50 (OVCAR-3): 45.2 µM (inactive) | GI50 (SR): > 100 µM (inactive) | GI50 (CAKI-1): > 100 µM (inactive) | GI50 (PC-3): 37.2 µM (inactive) | GI50 (UACC-62): 40.1 µM (inactive) | GI50 (HOP-62): > 100 µM (inactive) | GI50 (ACHN): 79.3 µM (inactive) | GI50 (HCC 2998): 57.8 µM (inactive) | GI50 (M14): 83.2 µM (inactive) | GI50 (RXF 393): > 100 µM (inactive) | GI50 (SF-295): 51.2 µM (inactive)

COc1cccc(Nc2nc(NNC(=O)Cc3ccccc3)nc(NNC(=O)c3ccncc3)n2)c1
GI50 (MDA-MB-231): 8.55 µM (inactive) | GI50 (KM12): 71.3 µM (inactive) | GI50 (IGROV-1): > 10 µM (inactive) | GI50 (MDA-MB-435): 52.8 µM (inactive) | GI50 (UO-31): 6.32 µM (inactive) | GI50 (Hs-578T): > 10 µM (inactive) | GI50 (SW-620): 78.2 µM (inactive) | GI50 (NCI-H23): > 10 µM (inactive) | GI50 (RPMI-8226): > 10 µM (inactive) | GI50 (OVCAR-3): > 100 µM (inactive) | GI50 (SR): 6.62 µM (inactive) | GI50 (CAKI-1): > 10 µM (inactive) | GI50 (PC-3): 53.1 µM (inactive) | GI50 (UACC-62): 4.71 µM (inactive) | GI50 (HOP-62): > 10 µM (inactive) | GI50 (ACHN): > 100 µM (inactive) | GI50 (HCC 2998): > 10 µM (inactive) | GI50 (M14): 79.4 µM (inactive) | GI50 (RXF 393): > 100 µM (inactive) | GI50 (SF-295): > 100 µM (inactive)

CCSc1nn(-c2c3ccccc3nc3ccccc23)c(=S)s1
GI50 (MDA-MB-231): > 100 µM (inactive) | GI50 (KM12): > 100 µM (inactive) | GI50 (IGROV-1): > 100 µM (inactive) | GI50 (MDA-MB-435): > 100 µM (inactive) | GI50 (UO-31): > 100 µM (inactive) | GI50 (Hs-578T): > 100 µM (inactive) | GI50 (SW-620): > 100 µM (inactive) | GI50 (NCI-H23): > 100 µM (inactive) | GI50 (RPMI-8226): > 100 µM (inactive) | GI50 (OVCAR-3): > 100 µM (inactive) | GI50 (SR): > 100 µM (inactive) | GI50 (CAKI-1): > 100 µM (inactive) | GI50 (PC-3): > 100 µM (inactive) | GI50 (UACC-62): > 100 µM (inactive) | GI50 (HOP-62): > 100 µM (inactive) | GI50 (ACHN): > 100 µM (inactive) | GI50 (HCC 2998): > 100 µM (inactive) | GI50 (M14): > 100 µM (inactive) | GI50 (RXF 393): > 100 µM (inactive) | GI50 (SF-295): > 100 µM (inactive)

COc1ccc(CCCCl)c(C2=NCCc3cc(OC)c(OC)cc32)c1
GI50 (MDA-MB-231): 69.3 µM (inactive) | GI50 (KM12): 38.8 µM (inactive) | GI50 (IGROV-1): 39.9 µM (inactive) | GI50 (MDA-MB-435): 35.6 µM (inactive) | GI50 (UO-31): 38 µM (inactive) | GI50 (Hs-578T): 32.7 µM (inactive) | GI50 (SW-620): 72.1 µM (inactive) | GI50 (NCI-H23): 31.5 µM (inactive) | GI50 (RPMI-8226): 6.87 µM (inactive) | GI50 (OVCAR-3): 92.7 µM (inactive) | GI50 (SR): > 100 µM (inactive) | GI50 (CAKI-1): 39.7 µM (inactive) | GI50 (PC-3): 35.3 µM (inactive) | GI50 (UACC-62): 32.8 µM (inactive) | GI50 (HOP-62): 91.2 µM (inactive) | GI50 (ACHN): 68.1 µM (inactive) | GI50 (HCC 2998): 48.4 µM (inactive) | GI50 (M14): 43.9 µM (inactive) | GI50 (RXF 393): 54.7 µM (inactive) | GI50 (SF-295): 48.5 µM (inactive)

C=CCSC1=N/C(=C\c2ccco2)C(=O)N1CC=C
GI50 (MDA-MB-231): 98.9 µM (inactive) | GI50 (KM12): 64.4 µM (inactive) | GI50 (IGROV-1): > 100 µM (inactive) | GI50 (MDA-MB-435): 52.5 µM (inactive) | GI50 (UO-31): 53 µM (inactive) | GI50 (Hs-578T): > 100 µM (inactive) | GI50 (SW-620): > 100 µM (inactive) | GI50 (NCI-H23): 66.5 µM (inactive) | GI50 (RPMI-8226): 28.2 µM (inactive) | GI50 (OVCAR-3): 95.3 µM (inactive) | GI50 (SR): 25.4 µM (inactive) | GI50 (CAKI-1): 70.6 µM (inactive) | GI50 (PC-3): 46.7 µM (inactive) | GI50 (UACC-62): 39.4 µM (inactive) | GI50 (HOP-62): > 100 µM (inactive) | GI50 (ACHN): 34.1 µM (inactive) | GI50 (HCC 2998): > 100 µM (inactive) | GI50 (M14): > 100 µM (inactive) | GI50 (RXF 393): 22.5 µM (inactive) | GI50 (SF-295): 71.1 µM (inactive)

COc1cc2cc(C(=O)N3C[C@H](CCl)c4c3cc(O)c3ccccc43)[nH]c2c(OC)c1OC
GI50 (MDA-MB-231): 1.69 µM (inactive) | GI50 (KM12): 0.213 µM (active) | GI50 (IGROV-1): 0.121 µM (active) | GI50 (MDA-MB-435): 0.222 µM (active) | GI50 (UO-31): 0.13 µM (active) | GI50 (Hs-578T): 0.234 µM (active) | GI50 (SW-620): 0.174 µM (active) | GI50 (NCI-H23): 0.0453 µM (active) | GI50 (RPMI-8226): 0.121 µM (active) | GI50 (OVCAR-3): 0.279 µM (active) | GI50 (SR): 0.0224 µM (active) | GI50 (CAKI-1): 0.789 µM (active) | GI50 (PC-3): 0.267 µM (active) | GI50 (UACC-62): 0.106 µM (active) | GI50 (HOP-62): 0.044 µM (active) | GI50 (ACHN): 0.0393 µM (active) | GI50 (HCC 2998): 0.16 µM (active) | GI50 (M14): 0.159 µM (active) | GI50 (RXF 393): 0.0459 µM (active) | GI50 (SF-295): 0.107 µM (active)
